According to ChEMBL document CHEMBL5131458, “Design, synthesis and human carbonic anhydrase I, II, IX and XII inhibitory properties of 1,3-thiazole sulfonamides” (Bioorg Med Chem Lett, 2022):

Molecular target: Carbonic anhydrase 9 (Homo sapiens, UniProt Q16790)
Assay: Inhibition of recombinant human carbonic anhydrase 9 incubated for 15 mins by phenol red based stopped-flow CO2 hydration assay

Compound	Ki [µM]
CCCCCCOC(=O)c1csc(Nc2ccc(S(N)(=O)=O)cc2)n1	0.0706
CCCCCCCOC(=O)c1csc(Nc2ccc(S(N)(=O)=O)cc2)n1	0.0743
NS(=O)(=O)c1ccc(Nc2nc(C(=O)OCCCCc3ccccc3)cs2)cc1	0.0868
CC(CO)OC(=O)c1csc(Nc2ccc(S(N)(=O)=O)cc2)n1 (stereo not given)	0.0379
NS(=O)(=O)c1ccc(Nc2nc(C(=O)OCCOc3ccccc3)cs2)cc1	0.15
NS(=O)(=O)c1ccc(Nc2nc(C(=O)OCCO)cs2)cc1	0.0432
CCCCOC(=O)c1csc(Nc2ccc(S(N)(=O)=O)cc2)n1	0.0711
CCCCCOC(=O)c1csc(Nc2ccc(S(N)(=O)=O)cc2)n1	0.072
CC(O)COC(=O)c1csc(Nc2ccc(S(N)(=O)=O)cc2)n1 (stereo not given)	0.0379
CCOCCOC(=O)c1csc(Nc2ccc(S(N)(=O)=O)cc2)n1	0.0512
COCCOC(=O)c1csc(Nc2ccc(S(N)(=O)=O)cc2)n1	0.0351
CCCCCCCCOC(=O)c1csc(Nc2ccc(S(N)(=O)=O)cc2)n1	0.0789
CCCOC(=O)c1csc(Nc2ccc(S(N)(=O)=O)cc2)n1	0.0499
CC(C)OC(=O)c1csc(Nc2ccc(S(N)(=O)=O)cc2)n1	0.0903
NS(=O)(=O)c1ccc(Nc2nc(C(=O)OCCOCCO)cs2)cc1	0.0268
